Reference: US20230339878A1, “SLC26A3 INHIBITORS AND USE THEREOF” (THE REGENTS OF THE UNIVERSITY OF CALIFORNIA, priority 2018, published 2023)
Entries after “also recorded” stand apart in the source; their conditions may differ.

Target: T1, TMEM16A (Homo sapiens, UniProt Q5XXA6)
T1 sequence (Q5XXA6 1-986): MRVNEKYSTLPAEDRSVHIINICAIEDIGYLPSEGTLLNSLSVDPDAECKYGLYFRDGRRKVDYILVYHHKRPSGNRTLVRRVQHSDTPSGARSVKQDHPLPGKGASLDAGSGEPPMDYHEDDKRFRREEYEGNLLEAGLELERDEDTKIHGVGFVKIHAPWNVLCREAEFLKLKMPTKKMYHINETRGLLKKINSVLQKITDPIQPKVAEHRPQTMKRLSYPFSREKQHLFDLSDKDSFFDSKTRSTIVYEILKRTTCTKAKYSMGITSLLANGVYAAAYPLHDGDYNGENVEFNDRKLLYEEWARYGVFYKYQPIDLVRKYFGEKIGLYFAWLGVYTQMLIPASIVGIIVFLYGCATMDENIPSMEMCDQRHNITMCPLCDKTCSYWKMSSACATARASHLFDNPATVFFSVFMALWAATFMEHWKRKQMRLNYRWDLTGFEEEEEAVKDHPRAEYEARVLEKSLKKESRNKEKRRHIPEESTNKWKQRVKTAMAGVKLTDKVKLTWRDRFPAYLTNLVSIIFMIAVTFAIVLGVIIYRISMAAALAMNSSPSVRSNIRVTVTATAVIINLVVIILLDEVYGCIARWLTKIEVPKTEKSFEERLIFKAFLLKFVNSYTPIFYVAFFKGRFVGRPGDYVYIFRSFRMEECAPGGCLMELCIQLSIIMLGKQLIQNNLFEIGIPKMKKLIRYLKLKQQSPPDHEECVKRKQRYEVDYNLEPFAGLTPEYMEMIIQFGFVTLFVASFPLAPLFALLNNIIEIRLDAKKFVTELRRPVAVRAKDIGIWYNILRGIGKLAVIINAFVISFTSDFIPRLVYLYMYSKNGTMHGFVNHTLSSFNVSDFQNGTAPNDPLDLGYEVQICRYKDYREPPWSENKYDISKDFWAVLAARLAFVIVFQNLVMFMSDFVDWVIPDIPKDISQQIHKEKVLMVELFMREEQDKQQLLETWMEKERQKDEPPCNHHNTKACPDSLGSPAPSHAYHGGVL
Assay: Selectivity: TMEM16A (ATP-stimulated) YFP assay
Format: cell-based
Details: 10 µM
Excerpt: To investigate Compound A1 selectivity, transport assays were done on a panel of SLC26-family homologs, and other relevant epithelial ion transporters and channels. […] In separate studies, to investigate possible action of Compound A1 on multiple ion transporters and channels in a human epithelium, human bronchial epithelial (HBE) cells were studied by short-circuit current, with successive additions of amiloride (to block the epithelial sodium channel ENaC), forskolin, CFTRinh-172 (to block CFTR), and ATP (to activate the Ca^2+-activated chloride channel, CaCC) (FIG. 5C).
YFP-based assays of CFTR, pendrin and TMEM16A were as described. HEK cells transfected to express YFP and SLC26A3, slc26a6 or slc26a9 were functionally assayed using a Cl^-/I^- exchange protocol. Assays of Cl^-/HCO3^- exchange were done using BCECF as an intracellular pH indicator as described for pendrin. […]
HEK293 cells transfected with pIRES-YFP-slc26a9 were plated in 96-well black-walled, clear-bottom tissue culture plates (Corning Life Sciences, Tewksbury, MA) after coating with FNC Coating Mix (AthenaES, Baltimore, MD). […] Assays of slc26a9-mediated anion exchange were done by initially recording YFP fluorescence prior to addition of 100 µL of NaI-substituted PBS to test wells, with the initial rate of Cl^-/I^- exchange deduced from fluorescence intensity by single exponential regression. […]

## Cc1c(CC(=O)O)c(=O)oc2c(C)c(OCc3cccc(Br)c3)ccc12 [Compound A1]
  effect on activity of TMEM16A: did not alter the activity; also recorded: differences not significant
